pIC50: −log10 of the molar value.
Each molecule was assayed against T1, KCNT1 (KNa1.1, Slack) (Homo sapiens, UniProt Q5JUK3) (assay: KCNT1 patch clamp assay (SyncroPatch 384PE automated patch clamp)). Conditions: tetracycline inducible HEK-TREX cell line; perforated patch; step from −80 mV to 0 mV; room temperature; read-out: KCNT1-WT IC50.
T1 construct: expressed in transfected cells; host or cells: HEK-TREX (tetracycline-inducible HEK cell line)
T1 sequence (Q5JUK3 1-1230): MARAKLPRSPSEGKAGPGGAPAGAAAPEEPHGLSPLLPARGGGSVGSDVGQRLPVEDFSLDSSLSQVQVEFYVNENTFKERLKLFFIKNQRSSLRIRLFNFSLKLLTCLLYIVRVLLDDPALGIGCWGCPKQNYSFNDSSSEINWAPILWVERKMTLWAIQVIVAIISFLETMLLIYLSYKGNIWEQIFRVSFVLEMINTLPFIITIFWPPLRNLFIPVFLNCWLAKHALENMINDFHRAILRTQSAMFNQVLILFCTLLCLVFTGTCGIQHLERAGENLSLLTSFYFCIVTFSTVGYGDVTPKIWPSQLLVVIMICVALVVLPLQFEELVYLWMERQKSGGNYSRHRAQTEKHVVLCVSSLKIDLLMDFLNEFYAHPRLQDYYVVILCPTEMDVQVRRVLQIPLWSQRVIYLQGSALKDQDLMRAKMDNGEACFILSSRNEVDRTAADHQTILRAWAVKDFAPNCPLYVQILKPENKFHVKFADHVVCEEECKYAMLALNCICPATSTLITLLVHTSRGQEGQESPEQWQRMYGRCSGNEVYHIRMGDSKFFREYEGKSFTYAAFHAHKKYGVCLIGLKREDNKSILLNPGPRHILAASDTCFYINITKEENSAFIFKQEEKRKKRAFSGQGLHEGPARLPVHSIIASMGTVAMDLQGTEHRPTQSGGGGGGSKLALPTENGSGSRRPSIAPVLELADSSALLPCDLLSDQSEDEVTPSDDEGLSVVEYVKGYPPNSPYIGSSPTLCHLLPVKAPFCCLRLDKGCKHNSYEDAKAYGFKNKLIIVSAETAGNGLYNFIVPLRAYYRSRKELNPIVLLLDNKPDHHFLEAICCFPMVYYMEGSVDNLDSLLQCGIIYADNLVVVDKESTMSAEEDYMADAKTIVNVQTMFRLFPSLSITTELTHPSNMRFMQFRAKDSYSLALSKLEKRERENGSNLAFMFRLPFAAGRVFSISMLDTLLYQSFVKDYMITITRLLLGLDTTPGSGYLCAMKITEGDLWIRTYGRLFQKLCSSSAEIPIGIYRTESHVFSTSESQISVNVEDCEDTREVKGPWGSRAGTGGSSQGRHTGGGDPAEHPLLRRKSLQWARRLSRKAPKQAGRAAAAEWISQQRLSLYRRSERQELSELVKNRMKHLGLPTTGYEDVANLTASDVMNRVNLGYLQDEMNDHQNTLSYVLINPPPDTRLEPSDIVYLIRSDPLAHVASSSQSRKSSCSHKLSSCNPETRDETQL
Assay type: cell-based
How it was run: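 Tetracycline-inducible HEK-TREX cells; perforated-patch (10 μM escin) population recordings at room temperature, holding −80 mV with 100 ms step to 0 mV.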
With `CNC(=O)C[C@H](NC(=O)c1cc(C(F)(F)F)nn1C)c1nc(-c2cccc(F)c2)no1` (single isomer, unassigned) [Compound 115] the pIC50 was ≤ 4.70.
For `Cc1cccc(-c2noc(C(C)NC(=O)c3cc(C(C)(C)C)nn3C)n2)c1` (stereo not shown) [Compound 13], the pIC50 was ≥ 6.00.
Work on `Cn1nc(C2CC2)cc1C(=O)NC(Cc1ccccc1)c1nc(-c2cccc(F)c2)no1` (stereo not shown) [Compound 49] yielded a pIC50 of 4.70 to 6.00.
`CC(NC(=O)c1cc(C(F)(F)F)nn1C)c1nc(-c2cccc(C(=O)O)c2)no1` (stereo not shown) [Compound 182, 3-(5-(1-(1-methyl-3-(trifluoromethyl)-1H-pyrazole-5-carboxamido)ethyl)-1,2,4-oxadiazol-3-yl)benzoic Acid] was tested, and the pIC50 was ≤ 4.70.
`C[C@H](NC(=O)c1ccn(Cc2ccccc2)n1)c1nc(-c2ccnc(C3CC3)c2)no1` [Compound 306, 1-benzyl-N-[(1S)-1-[3-(2-cyclopropyl-4-pyridyl)-1,2,4-oxadiazol-5-yl]ethyl]pyrazole-3-carboxamide] was tested, and the pIC50 was ≥ 6.00.
Work on `C[C@H](NC(=O)OC(C)(C)C)c1nc(-c2ccnc(OCC(F)F)c2)no1` [Compound 294, tert-butyl (S)-(1-(3-(2-(2,2-difluoroethoxy)pyridin-4-yl)-1,2,4-oxadiazol-5-yl)ethyl)carbamate] yielded a pIC50 of 4.70 to 6.00.
For `COCc1nn(C)cc1C(=O)N[C@@H](C)c1nc(-c2cccc(F)c2)no1` [Compound 156], the pIC50 was ≤ 4.70.
With `CCOc1cc(-c2noc([C@H](C)NC(=O)c3cc(C(F)(F)F)nn3C)n2)ccn1` [Compound 205, (S)—N-(1-(3-(2-ethoxypyridin-4-yl)-1,2,4-oxadiazol-5-yl)ethyl)-1-methyl-3-(trifluoromethyl)-1H-pyrazole-5-carboxamide] the pIC50 was ≥ 6.00.
`C[C@H](NC(=O)OC(C)(C)C)c1nc(-c2ccnc(C3(C)CC3)c2)no1` [Compound 272, tert-butyl (S)-(1-(3-(2-(1-methylcyclopropyl)pyridin-4-yl)-1,2,4-oxadiazol-5-yl)ethyl)carbamate] was tested, and the pIC50 was 4.70 to 6.00.
Work on `Cn1nc(C(F)(F)F)cc1C(=O)NC1(c2nc(-c3cccc(F)c3)no2)CCOC1` (stereo not shown) [Compound 148] yielded a pIC50 of 4.70 to 6.00.
For `COC(=O)CC(NC(=O)c1cc(C(F)(F)F)nn1C)c1nc(-c2cccc(F)c2)no1` (single isomer, unassigned) [Compound 125, methyl 3-[3-(3-fluorophenyl)-1,2,4-oxadiazol-5-yl]-3-[[2-methyl-5-(trifluoromethyl)pyrazole-3-carbonyl]amino]propanoate], the pIC50 was ≥ 6.00.
With `Cn1nc(C(F)(F)F)cc1C(=O)NCc1nc(-c2ccnc(C3CC3)c2)no1` [Compound 301, N-[[3-(2-cyclopropyl-4-pyridyl)-1,2,4-oxadiazol-5-yl]methyl]-2-methyl-5-(trifluoromethyl)pyrazole-3-carboxamide] the pIC50 was ≥ 6.00.
For `COC1(c2cc(-c3noc([C@H](C)NC(=O)OC(C)(C)C)n3)ccn2)CC1` [Compound 262, tert-butyl (S)-(1-(3-(2-(1-methoxycyclopropyl)pyridin-4-yl)-1,2,4-oxadiazol-5-yl)ethyl)carbamate], the pIC50 was 4.70 to 6.00.
With `CC[C@H](NC(=O)c1cc(C(F)(F)F)nn1C1CC1)c1nc(-c2cccc(F)c2)no1` [Compound 113] the pIC50 was ≥ 6.00.
With `CC(NC(=O)c1cc(C(F)(F)F)nn1C)c1nc(-c2cccc(CO)c2)no1` (stereo not shown) [Compound 176, N-(1-(3-(3-(hydroxymethyl)phenyl)-1,2,4-oxadiazol-5-yl)ethyl)-1-methyl-3-(trifluoromethyl)-1H-pyrazole-5-carboxamide] the pIC50 was 4.70 to 6.00.
With `C[C@H](NC(=O)OC1CCCC1)c1nc(-c2ccnc(C3CC3)c2)no1` [Compound 276] the pIC50 was ≥ 6.00.
`C[C@H](NC(=O)c1cc(C(F)(F)F)nn1Cc1ccccc1)c1nc(-c2ccnc(C(F)(F)F)c2)no1` [Compound 241, (S)-1-benzyl-3-(trifluoromethyl)-N-(1-(3-(2-(trifluoromethyl)pyridin-4-yl)-1,2,4-oxadiazol-5-yl)ethyl)-1H-pyrazole-5-carboxamide] was tested, and the pIC50 was ≥ 6.00.
In the case of `CC(NC(=O)c1cc(C(F)(F)F)nn1C)c1nc(-c2cccc(O)c2)no1` (stereo not shown) [Compound 186, N-(1-(3-(3-hydroxyphenyl)-1,2,4-oxadiazol-5-yl)ethyl)-1-methyl-3-(trifluoromethyl)-1H-pyrazole-5-carboxamide], the pIC50 was 4.70 to 6.00.
For `C[C@H](NC(=O)c1ccnn1CC1CC1)c1nc(-c2ccnc(C3CC3)c2)no1` [Compound 310, 2-(cyclopropylmethyl)-N-[(1S)-1-[3-(2-cyclopropyl-4-pyridyl)-1,2,4-oxadiazol-5-yl]ethyl]pyrazole-3-carboxamide], the pIC50 was ≥ 6.00.
`CC[C@H](NC(=O)c1cc(C)n(-c2cccnc2)n1)c1nc(-c2ccnc(C)c2)no1` [Compound 299, (S)-5-methyl-N-(1-(3-(2-methylpyridin-4-yl)-1,2,4-oxadiazol-5-yl)propyl)-1-(pyridin-3-yl)-1H-pyrazole-3-carboxamide] was tested, and the pIC50 was ≤ 4.70.
Molecule `Cn1nc(C2CC2)cc1C(=O)NC(C)(C)c1nc(-c2cccc(F)c2)no1` [Compound 50] has a pIC50 of 4.70 to 6.00.
For `Cc1cccc(-c2noc(C(C)NC(=O)c3c(C)cnn3C(C)C)n2)c1` (stereo not shown) [Compound 55], the pIC50 was 4.70 to 6.00.
With `CC[C@H](NC(=O)c1ccnn1Cc1ccccc1)c1nc(-c2ccnc(C)c2)no1` [Compound 219, (S)-1-benzyl-N-(1-(3-(2-methylpyridin-4-yl)-1,2,4-oxadiazol-5-yl)propyl)-1H-pyrazole-5-carboxamide] the pIC50 was ≥ 6.00.
`Cc1nn(C(C)C)cc1C(=O)N[C@@H](C)c1nc(-c2ccc(F)cc2)no1` [Compound 90] was tested, and the pIC50 was 4.70 to 6.00.
With `C[C@H](NC(=O)c1cc(C(F)(F)F)nn1C)c1nc(-c2ccnc(CN(C)C)c2)no1` [Compound 260, (S)—N-(1-(3-(2-((dimethylamino)methyl)pyridin-4-yl)-1,2,4-oxadiazol-5-yl)ethyl)-1-methyl-3-(trifluoromethyl)-1H-pyrazole-5-carboxamide] the pIC50 was ≤ 4.70.
For `CC(C)Oc1cc(-c2noc([C@H](C)NC(=O)c3cc(C(F)(F)F)nn3C)n2)ccn1` [Compound 201, (S)—N-(1-(3-(2-isopropoxypyridin-4-yl)-1,2,4-oxadiazol-5-yl)ethyl)-1-methyl-3-(trifluoromethyl)-1H-pyrazole-5-carboxamide], the pIC50 was ≥ 6.00.
With `C[C@H](NC(=O)c1cc(-c2ccc(F)cc2)nn1C)c1nc(-c2ccnc(C3CC3)c2)no1` [Compound 228, (S)—N-(1-(3-(2-cyclopropylpyridin-4-yl)-1,2,4-oxadiazol-5-yl)ethyl)-3-(4-fluorophenyl)-1-methyl-1H-pyrazole-5-carboxamide] the pIC50 was ≥ 6.00.
In the case of `CCOCc1cc(-c2noc([C@H](C)NC(=O)c3cc(C(F)(F)F)nn3C)n2)ccn1` [Compound 245, (S)—N-(1-(3-(2-(ethoxymethyl)pyridin-4-yl)-1,2,4-oxadiazol-5-yl)ethyl)-1-methyl-3-(trifluoromethyl)-1H-pyrazole-5-carboxamide], the pIC50 was 4.70 to 6.00.
Work on `Cc1nn(C2CC2)cc1C(=O)N[C@@H](C)c1nc(-c2cccc(F)c2)no1` [Compound 161] yielded a pIC50 of 4.70 to 6.00.
For `Cc1cccc(-c2noc(C(C)NC(=O)c3cc(C(C)C)nn3C)n2)c1` (stereo not shown) [Compound 10], the pIC50 was ≥ 6.00.
In the case of `CC(NC(=O)c1cc(C(F)(F)F)nn1C)c1nc(-c2ccnc(N3CCCCC3)c2)no1` (single isomer, unassigned) [Compound 210], the pIC50 was ≥ 6.00.
`C[C@H](NC(=O)c1cc(C(F)(F)F)nn1CC(=O)N(C)C)c1nc(-c2ccnc(C(F)(F)F)c2)no1` [Compound 251, (S)-1-(2-(dimethylamino)-2-oxoethyl)-3-(trifluoromethyl)-N-(1-(3-(2-(trifluoromethyl)pyridin-4-yl)-1,2,4-oxadiazol-5-yl)ethyl)-1H-pyrazole-5-carboxamide] was tested, and the pIC50 was 4.70 to 6.00.
In the case of `Cc1nn(C(C)C)cc1C(=O)NC(C)c1nc(-c2ccc(OC(F)(F)F)cc2)no1` (stereo not shown) [Compound 99], the pIC50 was 4.70 to 6.00.
Molecule `C[C@H](NC(=O)c1cc(C(F)(F)F)nn1C)c1nc(-c2ccnc(COC3CC3)c2)no1` [Compound 254, (S)—N-(1-(3-(2-(cyclopropoxymethyl)pyridin-4-yl)-1,2,4-oxadiazol-5-yl)ethyl)-1-methyl-3-(trifluoromethyl)-1H-pyrazole-5-carboxamide] has a pIC50 of 4.70 to 6.00.
